The structures appear in SMILES notation. Calls of active or inactive are those of the source. The rule behind the calls is not given here.

The species named for data set [1] is Rattus norvegicus. The data set is described as follows: (§1) Potency in adjuvant-induced arthritis assay/ potency in intestinal toxicity assay. Type of data set: functional.
For data set [2], the species on record is Rattus norvegicus. Kind of data set: Pharmacological potency relative to indomethacin for prodrug candidate by adjuvant-induced arthritis assay. The format is functional.
For the next data set, the target named is T1, Cyclooxygenase (Rattus norvegicus, UniProt P35355+Q63921).
T1 sequence (P35355 whole entry): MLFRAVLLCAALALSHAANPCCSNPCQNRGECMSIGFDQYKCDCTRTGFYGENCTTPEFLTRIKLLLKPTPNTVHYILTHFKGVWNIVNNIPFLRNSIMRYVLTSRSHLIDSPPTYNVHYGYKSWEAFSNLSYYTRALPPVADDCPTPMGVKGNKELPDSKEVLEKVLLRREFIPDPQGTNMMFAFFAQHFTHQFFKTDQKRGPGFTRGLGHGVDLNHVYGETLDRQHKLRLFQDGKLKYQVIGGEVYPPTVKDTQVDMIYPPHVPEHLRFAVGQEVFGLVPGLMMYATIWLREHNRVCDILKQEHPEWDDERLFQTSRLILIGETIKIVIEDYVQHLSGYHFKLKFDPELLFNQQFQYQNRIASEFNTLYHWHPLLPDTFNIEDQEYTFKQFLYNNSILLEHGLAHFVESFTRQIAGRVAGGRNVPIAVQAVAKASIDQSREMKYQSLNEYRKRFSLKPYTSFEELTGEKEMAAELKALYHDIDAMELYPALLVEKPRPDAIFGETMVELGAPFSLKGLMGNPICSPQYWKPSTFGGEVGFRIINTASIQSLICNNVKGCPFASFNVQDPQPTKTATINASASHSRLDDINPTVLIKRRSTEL
T1 sequence (Q63921 whole entry): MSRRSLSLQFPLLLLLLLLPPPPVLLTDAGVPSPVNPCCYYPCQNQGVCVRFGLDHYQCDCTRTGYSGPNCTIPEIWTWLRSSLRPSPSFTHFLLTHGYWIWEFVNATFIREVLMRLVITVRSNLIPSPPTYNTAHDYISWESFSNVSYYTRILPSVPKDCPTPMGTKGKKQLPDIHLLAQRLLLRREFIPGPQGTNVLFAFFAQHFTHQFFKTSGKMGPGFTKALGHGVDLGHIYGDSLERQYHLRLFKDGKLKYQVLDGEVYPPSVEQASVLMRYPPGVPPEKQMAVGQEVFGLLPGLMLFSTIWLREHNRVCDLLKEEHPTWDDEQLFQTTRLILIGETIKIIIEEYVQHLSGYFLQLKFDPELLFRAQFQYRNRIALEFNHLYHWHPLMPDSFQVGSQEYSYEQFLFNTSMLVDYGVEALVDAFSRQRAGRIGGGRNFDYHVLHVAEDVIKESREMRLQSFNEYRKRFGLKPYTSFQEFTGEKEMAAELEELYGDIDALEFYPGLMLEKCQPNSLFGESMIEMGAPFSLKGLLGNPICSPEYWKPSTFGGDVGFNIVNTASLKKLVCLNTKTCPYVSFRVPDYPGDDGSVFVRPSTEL

A short description of data set [3]: Antiinflammatory activity was tested in Pleural effusion rate assay and the percent change in average volume of pleural fluid at the dose of 316 mg/kg; Inactive.
For data set [4], the species on record is Rattus norvegicus. The data set is described as follows: potency in adjuvant-induced arthritis assay/ potency in intestinal toxicity assay. Type of data set: functional.
In data set [5] the test system is Rattus norvegicus. Kind of data set: Antiinflammatory activity was tested in Pleural effusion rate assay for and the percent change in average volume of pleural fluid at the dose of 4.0 mg/kg. The format is functional.
A short description of data set [6]: as §1. Particulars: read-out: Therapeutic index.
Data set [7] concerns the target Prostaglandin G/H synthase 1 (Ovis aries) (UniProt P05979). Kind of data set: Inhibitory activity against Prostaglandin G/H synthase.

A word on the IC50: it is the midpoint of a concentration-inhibition curve. Lower therefore signals greater potency in that assay. In the case of `Nc1c(C(=O)CCC(=O)O)cccc1C(=O)c1ccc(Cl)cc1`, the Therapeutic index in the data set listed under Rattus norvegicus [1] was 3. In addition, the Potency in the data set listed under Rattus norvegicus [2] is recorded as 0.9. This molecule also gave an IC50 against Cyclooxygenase of more than 1000 µM.
As to `O=C1Cc2cccc(C(=O)c3ccccc3)c2N1`, the Change entry in data set [3] is “inactive”.
On to `CCOC(=O)Cc1cccc(C(=O)c2ccc(Cl)cc2)c1NC(=O)C(F)(F)F`, for which the Therapeutic index in the data set listed under Rattus norvegicus [1] came out at 3.3. Moreover, the Potency in the data set filed under Rattus norvegicus [2] was 1. The molecule further displayed an IC50 against Cyclooxygenase of more than 1000 µM.
`COc1ccc2c(c1)c(CC(=O)O)c(C)n2C(=O)c1ccc(Cl)cc1` [INDOMETHACIN]: the Potency in the data set listed under Rattus norvegicus [2] was 1.
For the molecule `Nc1c(CCO)cccc1C(=O)c1ccccc1`, the Potency in the data set listed under Rattus norvegicus [2] stood at 0.05. For the same molecule, the IC50 against Cyclooxygenase was more than 100 µM.
`Nc1c(CC(=O)[O-])cccc1C(=O)C1CCCCC1.[Na+]`: the Potency in the data set filed under Rattus norvegicus [2] was found to be 0.004.
Regarding `CCOC(=O)Cc1cccc(C(=O)c2ccccc2)c1N`, the Therapeutic index in the data set filed under Rattus norvegicus [1] is 0.4. In the data set listed under Rattus norvegicus [2], the Potency came to 0.3. This molecule also yielded an IC50 at Cyclooxygenase of 50 µM.
In the same order, the values of `Nc1c(CC(=O)[O-])cccc1C(=O)c1ccccc1.[Na+]` [AMFENAC SODIUM] are 2.8, 1.1 and 0.1 µM.
In the same order, the values of `Nc1c(CC(=O)[O-])cccc1C(=O)c1ccc(Cl)cc1.[Na+]` are 1.6, 2.2 and 0.1 µM.
In the same order, the values of `O=C(O)Cc1cccc(C(=O)c2ccccc2)c1[N+](=O)[O-]` are 5, 0.5 and more than 1000 µM.
Turning to `CN(C)c1c(CC(=O)O)cccc1C(=O)c1ccccc1`, in the data set filed under Rattus norvegicus [2], the Potency is recorded as 0.009. On Cyclooxygenase, this molecule had an IC50 of more than 1000 µM.
`Nc1c(C(=O)CCC(=O)O)cccc1C(=O)c1ccccc1`: in the data set filed under Rattus norvegicus [1], the Therapeutic index stood at 2.5. Further, the Potency in the data set filed under Rattus norvegicus [2] amounted to 0.4. Moreover, the IC50 against Cyclooxygenase is more than 1000 µM.
In the same order, the values of `CCOC(=O)Cc1cccc(C(=O)c2ccc(Cl)cc2)c1N` are 1.7, 1 and 73 µM.
As for `O=C(O)Cc1cccc2c(-c3ccc(Cl)cc3)onc12`, in the data set listed under Rattus norvegicus [4], the Therapeutic index is listed as 1. Also, in the data set listed under Rattus norvegicus [2], the Potency is 1. Also, the 50% inhibitory concentration (IC50) at Cyclooxygenase is more than 500 µM.
On to `O=C(O)Cc1cccc2c(-c3ccccc3)onc12`, for which, in the data set filed under Rattus norvegicus [1], the Therapeutic index was 2.5. For the same molecule, the Potency in the data set listed under Rattus norvegicus [2] was determined as 0.6. Also, at Cyclooxygenase, the IC50 was more than 1000 µM.
`O=C(O)Cc1cccc(C(=O)c2ccc(Cl)cc2)c1[N+](=O)[O-]`: in the data set on Rattus norvegicus [5], the Change is given as -21%. For the same molecule, the Potency in the data set filed under Rattus norvegicus [2] amounted to 1.7. In addition, the selectivity ratio in data set [6] worked out at 3.4. The same molecule registered an IC50 in data set [7] of more than 1000 µM.
With `Nc1c(CCO)cccc1C(=O)c1ccc(Cl)cc1`, the Therapeutic index in the data set filed under Rattus norvegicus [1] stood at 3.3. Further, the Potency in the data set filed under Rattus norvegicus [2] was found to be 0.8. Besides, the IC50 against Cyclooxygenase is more than 1000 µM.
Take `NC(=O)Cc1cccc(C(=O)c2ccccc2)c1N`: the Potency in the data set listed under Rattus norvegicus [2] stood at 0.09. The molecule also showed an IC50 against Cyclooxygenase of more than 100 µM.
In the same order, the values of `Nc1c(CC(=O)[O-])cccc1C(O)c1ccccc1.[Na+]` (stereo unspecified) are 0.001 and more than 1000 µM.
In the same order, the values of `Nc1c(CCO)cccc1C(O)c1ccc(Cl)cc1` (stereo unspecified) are 0.05 and more than 1000 µM.
As to `O=C1Cc2cccc(C(=O)c3ccc(Cl)cc3)c2N1`, in data set [3], the Change result was “inactive”.
Still for that read-out and setting: the value for `CC(=O)Nc1c(CC(=O)O)cccc1C(=O)c1ccccc1` was “inactive”.
`CC(=O)c1cccc(C(=O)c2ccccc2)c1N`: the Change entry in data set [3] is “inactive”.
Regarding `Nc1c(CC(=O)[O-])cccc1C(O)c1ccc(Cl)cc1.[Na+]` (stereo unspecified), the Potency in the data set filed under Rattus norvegicus [2] was found to be 0.002. The same molecule displayed an IC50 at Cyclooxygenase of more than 1000 µM.
As to `NC(=O)Cc1cccc(C(=O)c2ccc(Cl)cc2)c1N`, in the data set filed under Rattus norvegicus [1], the Therapeutic index is 10. In the data set filed under Rattus norvegicus [2], the Potency is 0.8. In addition, the IC50 at Cyclooxygenase is more than 1000 µM.
Regarding `N#CCc1cccc(C(=O)c2ccc(Cl)cc2)c1N`, the Change entry in data set [3] was “inactive”.
Take `Nc1c(CCO)cccc1C(O)c1ccccc1` (stereo unspecified): in the data set listed under Rattus norvegicus [2], the Potency came out at 0.005. The IC50 against Cyclooxygenase was more than 500 µM.

The record behind these values is ChEMBL document CHEMBL1124887, “Antiinflammatory agents. 4. Syntheses and biological evaluation of potential prodrugs of 2-amino-3-benzoylbenzeneacetic acid and 2-amino-3-(4-chlorobenzoyl)benzeneacetic acid” (J Med Chem, 1990).
